The record followed here is paper PMC7894522, “Structure Based Design of Bicyclic Peptide Inhibitors of RbAp48” (Angewandte Chemie (International Ed. in English), 2020).

Like-named read-outs stand apart in the source and are kept apart here. Starred links: 1 amine or outer side, 2 acyl side, 3 side chain; linkers in the order of their positions; H or OH if unused. Positions of bridges follow the written chain, without caps; N, C: chain ends. Residues, ends and D or L forms follow the SMILES beside them. Pyridine(2,6-diCH2) = c1cc(C[*:1])nc(C[*:2])c1; TBMB = c1c(C[*:1])cc(C[*:3])cc1C[*:2]; mXylylene = c1cc(C[*:1])cc(C[*:2])c1; oXylylene = c1ccc(C[*:2])c(C[*:1])c1; pXylylene = c1cc(C[*:2])ccc1C[*:1]

The target in the test is RbAp48 (Homo sapiens, UniProt Q09028). Kind of test: Competitive fluorescence polarization (FP) assay using complex of peptide 1 and RbAp48. Format: binding. Further details: Full length RbAp48 was cloned; His tag followed by 3C cleavage site (N, cleaved yes); made in house; host or cells: Sf9 insect cells. The following applies: competitive FP, RbAp48 15 nM, read-out: IC50. As for the experimental part: The binding affinity of our library of synthetic cyclic peptides was evaluated by a competitive fluorescence polarization (FP) assay using a complex formed by peptide 1 and RbAp48. To reduce the length of the peptide it was truncated to the amino acids which seemed most critical according to the crystal structure (residues 676–689, pdb:4pbz). […] We chose to use a cyclization approach to regain affinity, that is, not to induce more interactions but through minimizing the entropic penalty upon binding by reducing the flexibility of the peptide. To this end two amino acids were chosen which are facing one another in the structure (see Figure 1 B/D/E). Two peptides were designed where glutamic acid was used in position 676 (4) or position 680 (5) and lysine in position 688 for both peptides (see Table 1). The macrocycles were formed by connecting the side chains via an amide bond (see Figure 1 D/E). Peptide synthesis was performed on Rink‐amide resin using the Fmoc‐strategy incorporating Fmoc‐L‐Glu(All)‐OH and Fmoc‐L‐Lys(Alloc)‐OH at the sites for cyclization. After completion of the linear synthesis the allyl protecting groups were removed using Pd^0 catalysis and the amide link was formed by using PyBOP. […] Therefore, a range of peptides was synthesized which were cyclized using the same amino acid positions but via a cysteine alkylation strategy (see Figure 1 D/E and Table 1). In this method the residues used for cyclization are replaced with cysteine and benzylic dibromides act as crosslinkers on the unprotected peptides. ^[11] Previous research has shown that such linkers can effectively stabilize cyclic peptides and yield high affinity ligands for protein–protein interaction inhibition. ^[12] Such a linker introduces a xylene group in close vicinity of the hydrophobic patch potentially reconstituting the lost key hydrophobic interactions. To explore a variety of macrocycle conformations we used either ortho‐, meta‐ or para‐substituted dibromides to exchange the linker in both 4 and 5 (see Figure 1 D/E and Table 1). ^[13]
Protein expression and purification
RbAp48 was expressed and purified by the Dortmund Protein Facility. Full length RbAp48 was cloned into a pOPIN vector ligating it to an N-terminal His tag followed by a 3C cleavage site. The protein was expressed from Sf9 cells for 48 h. Cells were harvested and lysed and the protein was purified by loading onto a HisTrap FF crude 5 ml column followed by on-column cleavage using Precission protease. The cleaved protein was then further purified using a HiLoad 26/60 Superdex 200 column.
Fluorescence polarization assay
Fluorescence polarization assays were performed in 384 wells plates in 80 µl volumes. The assay buffer contains 20 mM Tris-HCl, 150 mM NaCl, 0.01% Tween-20 at pH 7.5. The concentration of the fluorescently labelled peptides was 1 nM plates were incubated at room temperature for 30 min before they were read on a Tecan Spark plate reader (λex = 485 nm, λem = 535 nm).
For competitive assays the same conditions were used with a tracer concentration of 1 nM was used and a protein concentration of 15 nM .

Where [1] appears, read: Supplemental Table 2, tracer 1 nM, pH 7.5, 30 min room temperature.
Where [2] appears, read: Table 1, tracer peptide 1 1 nM, 20 mM Tris-HCl, 150 mM NaCl, 0.01% Tween-20, pH 7.5, 30 min room temperature, lower limit set by 15 nM protein.

Chain of RbAp48 (Q09028 whole entry, the tested form may be a part): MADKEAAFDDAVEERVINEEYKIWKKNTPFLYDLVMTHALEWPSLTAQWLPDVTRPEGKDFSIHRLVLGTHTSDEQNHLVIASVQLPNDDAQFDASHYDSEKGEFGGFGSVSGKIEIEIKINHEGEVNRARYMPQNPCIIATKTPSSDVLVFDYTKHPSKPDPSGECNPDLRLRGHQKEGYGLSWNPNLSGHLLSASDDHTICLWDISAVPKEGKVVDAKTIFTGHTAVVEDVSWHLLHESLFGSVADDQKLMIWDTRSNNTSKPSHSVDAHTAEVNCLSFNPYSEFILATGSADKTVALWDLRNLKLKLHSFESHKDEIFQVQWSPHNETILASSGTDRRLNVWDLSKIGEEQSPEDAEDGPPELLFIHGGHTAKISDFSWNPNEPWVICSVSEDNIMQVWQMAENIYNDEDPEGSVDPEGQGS

`CC(=O)N[C@H]1CSCc2cc3cc(c2)CSC[C@@H](C(=O)N[C@@H](CC(N)=O)C(N)=O)NC(=O)[C@@H]2CCCN2C(=O)[C@H](CC(C)C)NC(=O)[C@H](Cc2ccc(O)cc2)NC(=O)[C@@H]2CCCN2C(=O)[C@H](Cc2c[nH]cn2)NC(=O)[C@H](CCCNC(=N)N)NC(=O)[C@H](C)NC(=O)[C@H](CSC3)NC(=O)[C@H](Cc2c[nH]cn2)NC(=O)[C@H](Cc2c[nH]c3ccccc23)NC(=O)[C@@H]2CCCN2C(=O)[C@H](CCCNC(=N)N)NC1=O` [Peptide 34] (Ac-CRPWHCARHPYLPCN-NH2; linker 1-6-14 via TBMB): the IC50 under setting [1] is 153 ± 2.4 nM.

In the case of `CC(=O)N[C@H]1CSCc2ccc(cc2)CSC[C@@H](C(=O)N[C@@H](CC(N)=O)C(N)=O)NC(=O)[C@@H]2CCCN2C(=O)[C@H](CC(C)C)NC(=O)[C@H](Cc2ccc(O)cc2)NC(=O)[C@@H]2CCCN2C(=O)[C@H](Cc2c[nH]cn2)NC(=O)[C@H](CCCNC(=N)N)NC(=O)[C@H](C)NC(=O)[C@H](C)NC(=O)[C@H](Cc2c[nH]cn2)NC(=O)[C@H](Cc2c[nH]c3ccccc23)NC(=O)[C@@H]2CCCN2C(=O)[C@H](CCCNC(=N)N)NC1=O` [Peptide 17] (Ac-CRPWHAARHPYLPCN-NH2; linker 1-14 via pXylylene), under setting [1], the IC50 is above 10000 nM.

`CC(=O)N[C@H]1CSCc2ccc(cc2)CSC[C@@H](C(=O)N[C@@H](C)C(N)=O)NC(=O)[C@@H]2CCCN2C(=O)[C@H](CCCCN)NC(=O)[C@H](Cc2ccc(O)cc2)NC(=O)[C@@H]2CCCN2C(=O)[C@H](CCCNC(=N)N)NC(=O)[C@H](CCCNC(=N)N)NC(=O)[C@H](C)NC(=O)[C@H](C)NC(=O)[C@H](CCCNC(=N)N)NC(=O)[C@H](Cc2c[nH]c3ccccc23)NC(=O)[C@H]([C@@H](C)O)NC1=O` [Peptide 23] (Ac-CTWRAARRPYKPCA-NH2; linker 1-13 via pXylylene): under setting [1], the IC50 was 245 ± 29.3 nM.

For the molecule `CC(=O)N[C@@H](CCC(=O)O)C(=O)N[C@H](C(=O)N[C@@H](CCCCN)C(=O)N[C@@H](CCCNC(=N)N)C(=O)N[C@H]1CSCc2ccc(cc2)CSC[C@@H](C(=O)N[C@@H](C)C(N)=O)NC(=O)[C@@H]2CCCN2C(=O)[C@H](CCCCN)NC(=O)[C@H](Cc2ccc(O)cc2)NC(=O)[C@@H]2CCCN2C(=O)[C@H](CCCNC(=N)N)NC(=O)[C@H](CCCNC(=N)N)NC(=O)[C@H](C)NC1=O)[C@@H](C)O` [Peptide 12] (Ac-ETKRCARRPYKPCA-NH2; linker 5-13 via pXylylene), the IC50 under setting [2] was 2340 ± 363 nM.

`CC(=O)N[C@H]1CSCc2cc3cc(c2)CSC[C@@H](C(=O)N[C@@H](C)C(N)=O)NC(=O)[C@@H]2CCCN2C(=O)[C@H](CCCCN)NC(=O)[C@H](Cc2ccc(O)cc2)NC(=O)[C@@H]2CCCN2C(=O)[C@H](CCCNC(=N)N)NC(=O)[C@H](CCCNC(=N)N)NC(=O)[C@H](C)NC(=O)[C@H](CSC3)NC(=O)[C@H](CCCNC(=N)N)NC(=O)[C@H](C)NC(=O)[C@H]([C@@H](C)O)NC1=O` [Peptide 38] (Ac-CTARCARRPYKPCA-NH2; linker 1-5-13 via TBMB): under setting [2], the IC50 was determined as 263 ± 42.7 nM.

On to `CC(=O)N[C@H]1CSCc2cc3cc(c2)CSC[C@@H](C(=O)N[C@@H](C)C(N)=O)NC(=O)[C@@H]2CCCN2C(=O)[C@H](CCCCN)NC(=O)[C@H](Cc2ccc(O)cc2)NC(=O)[C@@H]2CCCN2C(=O)[C@H](CCCNC(=N)N)NC(=O)[C@H](CCCNC(=N)N)NC(=O)[C@H](C)NC(=O)[C@H](CSC3)NC(=O)[C@H](CCCNC(=N)N)NC(=O)[C@H](CCCCN)NC(=O)[C@H](C)NC1=O` [Peptide 37] (Ac-CAKRCARRPYKPCA-NH2; linker 1-5-13 via TBMB), for which, under setting [2], the concentration for half-maximal inhibition (IC50) came to 12.4 ± 3.2 nM.

Take `CC(=O)N[C@H]1CSCc2cc3cc(c2)CSC[C@@H](C(=O)N[C@@H](C)C(N)=O)NC(=O)[C@@H]2CCCN2C(=O)[C@H](CCCCN)NC(=O)[C@H](Cc2ccc(O)cc2)NC(=O)[C@@H]2CCCN2C(=O)[C@H](C)NC(=O)[C@H](CCCNC(=N)N)NC(=O)[C@H](C)NC(=O)[C@H](CSC3)NC(=O)[C@H](CCCNC(=N)N)NC(=O)[C@H](CCCCN)NC(=O)[C@H]([C@@H](C)O)NC1=O` [Peptide 41] (Ac-CTKRCARAPYKPCA-NH2; linker 1-5-13 via TBMB): the IC50 under setting [2] amounted to 24.6 ± 3.9 nM.

For the molecule `CC(=O)N[C@H]1CSCc2cccc(c2)CSC[C@@H](C(=O)N[C@@H](C)C(N)=O)NC(=O)[C@@H]2CCCN2C(=O)[C@H](CCCCN)NC(=O)[C@H](Cc2ccc(O)cc2)NC(=O)[C@@H]2CCCN2C(=O)[C@H](CCCNC(=N)N)NC(=O)[C@H](CCCNC(=N)N)NC(=O)[C@H](C)NC(=O)[C@H](C)NC(=O)[C@H](CCCNC(=N)N)NC(=O)[C@H](Cc2c[nH]c3ccccc23)NC(=O)[C@H]([C@@H](C)O)NC1=O` [Peptide 22] (Ac-CTWRAARRPYKPCA-NH2; linker 1-13 via mXylylene), under setting [1], the concentration for half-maximal inhibition (IC50) stood at 315 ± 57.8 nM.

Turning to `CC(=O)N[C@@H](CCC(=O)O)C(=O)N[C@H](C(=O)N[C@@H](CCCCN)C(=O)N[C@@H](CCCNC(=N)N)C(=O)N[C@H]1CSCc2ccccc2CSC[C@@H](C(=O)N[C@@H](C)C(N)=O)NC(=O)[C@@H]2CCCN2C(=O)[C@H](CCCCN)NC(=O)[C@H](Cc2ccc(O)cc2)NC(=O)[C@@H]2CCCN2C(=O)[C@H](CCCNC(=N)N)NC(=O)[C@H](CCCNC(=N)N)NC(=O)[C@H](C)NC1=O)[C@@H](C)O` [Peptide 10] (Ac-ETKRCARRPYKPCA-NH2; linker 5-13 via oXylylene), the concentration for half-maximal inhibition (IC50) under setting [2] is 322 ± 56.8 nM.

As for `CC(=O)N[C@H]1CSCc2ccc(cc2)CSC[C@@H](C(=O)N[C@@H](CC(N)=O)C(N)=O)NC(=O)[C@@H]2CCCN2C(=O)[C@H](CC(C)C)NC(=O)[C@H](Cc2ccc(O)cc2)NC(=O)[C@@H]2CCCN2C(=O)[C@H](Cc2c[nH]cn2)NC(=O)[C@H](CCCNC(=N)N)NC(=O)[C@H](C)NC(=O)[C@H](C)NC(=O)[C@H](Cc2c[nH]cn2)NC(=O)[C@H](Cc2c[nH]c3ccccc23)NC(=O)[C@@H]2CCCN2C1=O` [Peptide 19] (Ac-CPWHAARHPYLPCN-NH2; linker 1-13 via pXylylene), the IC50 under setting [1] is above 10000 nM.

For the molecule `CC[C@H](C)[C@H](NC(=O)[C@@H]1CCCN1C(=O)[C@H](CC(C)C)NC(=O)[C@H](Cc1ccc(O)cc1)NC(=O)[C@@H]1CCCN1C(=O)[C@H](Cc1c[nH]cn1)NC(=O)[C@H](CCCNC(=N)N)NC(=O)[C@H](C)NC(=O)[C@H](C)NC(=O)[C@H](Cc1c[nH]cn1)NC(=O)[C@H](Cc1c[nH]c2ccccc12)NC(=O)[C@@H]1CCCN1C(=O)[C@H](CCCNC(=N)N)NC(=O)[C@H](CC(C)C)NC(C)=O)C(=O)N[C@@H](CC(N)=O)C(N)=O` [Peptide 14] (Ac-LRPWHAARHPYLPIN-NH2), the IC50 under setting [1] is above 10000 nM.

Take `CC(=O)N[C@H]1CSCc2ccc(cc2)CSC[C@@H](C(=O)N[C@@H](C)C(N)=O)NC(=O)[C@@H]2CCCN2C(=O)[C@H](CCCCN)NC(=O)[C@H](Cc2ccc(O)cc2)NC(=O)[C@@H]2CCCN2C(=O)[C@H](Cc2c[nH]cn2)NC(=O)[C@H](CCCNC(=N)N)NC(=O)[C@H](C)NC(=O)[C@H](C)NC(=O)[C@H](CCCNC(=N)N)NC(=O)[C@H](CCCCN)NC(=O)[C@H]([C@@H](C)O)NC1=O` [Peptide 27] (Ac-CTKRAARHPYKPCA-NH2; linker 1-13 via pXylylene): the IC50 under setting [1] amounted to 335 ± 65 nM.

For `CC(=O)N[C@H]1CSCc2cccc(n2)CSC[C@@H](C(=O)N[C@@H](C)C(N)=O)NC(=O)[C@@H]2CCCN2C(=O)[C@H](CCCCN)NC(=O)[C@H](Cc2ccc(O)cc2)NC(=O)[C@@H]2CCCN2C(=O)[C@H](CCCNC(=N)N)NC(=O)[C@H](CCCNC(=N)N)NC(=O)[C@H](C)NC(=O)[C@H](C)NC(=O)[C@H](CCCNC(=N)N)NC(=O)[C@H](CCCCN)NC(=O)[C@H]([C@@H](C)O)NC1=O` [Peptide 9] (Ac-CTKRAARRPYKPCA-NH2; linker 1-13 via Pyridine(2,6-diCH2)), the IC50 under setting [2] was 34.9 ± 14 nM.
